Non-standard residues stand in square brackets, D forms with d. Residues, ends and D or L forms follow the SMILES beside them. *: point of attachment. sY = N[C@@H](Cc1ccc(OS(=O)(=O)O)cc1)C(=O)O; X1 = O=C(O)C[C@H](NS(=O)(=O)O)C(=O)*; NMeNle = CCCC[C@H](NC)C(=O)O; Nle = CCCC[C@H](N)C(=O)O

These results are taken from US5631230A, “Receptor selective analogues of cholecystokinin-8” (priority 1994, dated 1997).

The target in assay [1] is T1, [^125 I] CCK-8 binding sites (CCK receptor), Rat Pancreas (Rattus norvegicus, UniProt P30551).
T1 construct: from tissue; host or cells: rat pancreas
T1 sequence (P30551 1-444): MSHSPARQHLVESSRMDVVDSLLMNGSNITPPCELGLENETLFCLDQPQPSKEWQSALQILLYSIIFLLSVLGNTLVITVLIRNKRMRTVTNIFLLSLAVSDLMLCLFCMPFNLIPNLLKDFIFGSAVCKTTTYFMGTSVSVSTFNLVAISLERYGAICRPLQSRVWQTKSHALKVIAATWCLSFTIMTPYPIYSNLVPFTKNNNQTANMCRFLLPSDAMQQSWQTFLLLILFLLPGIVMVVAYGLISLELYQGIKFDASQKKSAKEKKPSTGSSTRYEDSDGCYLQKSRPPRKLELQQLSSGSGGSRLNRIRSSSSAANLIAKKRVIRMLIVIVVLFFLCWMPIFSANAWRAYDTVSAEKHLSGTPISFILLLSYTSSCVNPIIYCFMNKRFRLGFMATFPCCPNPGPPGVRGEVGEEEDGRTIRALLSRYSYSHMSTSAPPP
Briefly: Inhibition of [125I] CCK-8 binding, rat pancreas.

In assay [2] the target is T2, [^125 I] CCK-8 binding sites (CCK receptor), Guinea Pig Pancreas (Cavia porcellus, UniProt Q63931).
T2 construct: from tissue; host or cells: guinea pig pancreas
T2 sequence (Q63931 1-430): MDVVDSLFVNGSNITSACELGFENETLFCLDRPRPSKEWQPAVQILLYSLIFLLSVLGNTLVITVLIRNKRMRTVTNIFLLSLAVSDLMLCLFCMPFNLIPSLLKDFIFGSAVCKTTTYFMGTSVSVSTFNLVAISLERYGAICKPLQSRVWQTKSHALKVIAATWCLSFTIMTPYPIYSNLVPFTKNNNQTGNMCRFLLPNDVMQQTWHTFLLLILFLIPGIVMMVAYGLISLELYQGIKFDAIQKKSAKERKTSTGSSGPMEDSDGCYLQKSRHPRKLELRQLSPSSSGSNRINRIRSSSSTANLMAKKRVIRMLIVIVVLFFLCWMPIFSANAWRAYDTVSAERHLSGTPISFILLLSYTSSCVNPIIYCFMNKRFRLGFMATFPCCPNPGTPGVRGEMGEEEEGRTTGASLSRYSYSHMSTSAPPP
Briefly: Inhibition of [125I] CCK-8 binding, guinea pig pancreas. To be noted: read-out: Guinea Pig Pancreas IV50.

Assay [3] addresses T3, [^125 I] CCK-8 binding sites (CCK receptor), Rat Brain (Rattus norvegicus, UniProt P30553).
T3 construct: from tissue; host or cells: rat brain
T3 sequence (P30553 1-452): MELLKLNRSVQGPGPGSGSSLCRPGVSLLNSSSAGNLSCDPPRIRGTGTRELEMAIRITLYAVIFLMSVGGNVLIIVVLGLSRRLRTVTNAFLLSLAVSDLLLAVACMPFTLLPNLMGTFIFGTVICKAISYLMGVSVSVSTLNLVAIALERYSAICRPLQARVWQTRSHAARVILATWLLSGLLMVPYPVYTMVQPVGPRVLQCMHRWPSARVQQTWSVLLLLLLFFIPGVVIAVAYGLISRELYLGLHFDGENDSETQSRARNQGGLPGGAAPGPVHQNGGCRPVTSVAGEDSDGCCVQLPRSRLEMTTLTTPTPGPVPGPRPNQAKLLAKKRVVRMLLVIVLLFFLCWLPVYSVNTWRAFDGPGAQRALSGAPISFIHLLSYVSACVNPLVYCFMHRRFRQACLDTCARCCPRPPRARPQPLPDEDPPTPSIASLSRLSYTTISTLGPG
Briefly: Inhibition of [125I] CCK-8 binding, rat brain. To be noted: for Ratio Pancreas/Brain Rat: IC50 pancreas / IC50 brain.

For assay [4], the system named is [^125 I] CCK-8 binding sites (CCK receptor), Guinea Pig Brain. The assay is described as follows: Inhibition of [125I] CCK-8 binding, guinea pig brain. The following applies: for Ratio Pancreas/Brain (Guinea Pig): value in brackets, IC50 pancreas / IC50 brain; for IC50: inhibition of [125I] CCK-8 binding, guinea pig brain.

`CSCC[C@H](NC(=O)[C@H](Cc1ccc(OS(=O)(=O)O)cc1)NC(=O)[C@@H](N)CC(=O)O)C(=O)NCC(=O)N[C@@H](Cc1c[nH]c2ccccc12)C(=O)N[C@@H](CCSC)C(=O)N[C@@H](CC(=O)O)C(=O)N[C@@H](Cc1ccccc1)C(N)=O` [CCK-8, Asp-Tyr-(SO3^-)-Met-Gly-Trp-Met-Asp-Phe-NH2, reference compound] had an IC50 in assay [1] of 0.129 nM.

Turning to `CCCC[C@@H](C(=O)N[C@@H](CC(=O)O)C(=O)N[C@@H](Cc1ccccc1)C(N)=O)N(C)C(=O)[C@H](Cc1c[nH]c2ccccc12)NC(=O)CN` [Compound 1, H-Gly-Trp-N-MeNle-Asp-Phe-NH2] (H-GW[NMeNle]DF-NH2), the results for the IC50 in assay [2], in assay [3] and in assay [1] were 8000 nM, 4.67 nM and greater than 10000 nM, respectively.

With `CCCC[C@@H](C(=O)N[C@@H](CC(=O)O)C(=O)N[C@@H](Cc1ccccc1)C(N)=O)N(C)C(=O)[C@H](Cc1c[nH]c2ccccc12)NC(=O)CNC(=O)[C@H](CCCC)N(C)C(=O)[C@H](Cc1ccc(O)cc1)NC(=O)[C@@H](N)CC(=O)O` [Compound 2, H-Asp-Tyr-N-MeNle-Gly-Trp-N-MeNle-Asp-Phe-NH2], the “Ratio Pancreas/Brain (Guinea Pig)” value in assay [4] was determined as 4146. Besides, the IC50 in assay [4] is 0.23 nM; in assay [2] it was 958 nM; in assay [3], 0.131 nM; in assay [1], 1030 nM. Besides, the “Ratio Pancreas/Brain Rat” value in assay [3] is given as 7,863.

Turning to `CCCC[C@@H](C(=O)N[C@@H](CC(=O)O)C(=O)N[C@@H](Cc1ccccc1)C(N)=O)N(C)C(=O)[C@H](Cc1c[nH]c2ccccc12)NC(=O)CNC(=O)[C@H](CCCC)N(C)C(=O)[C@H](Cc1ccc(OS(=O)(=O)O)cc1)NC(=O)[C@H](CC(=O)O)NS(=O)(=O)O` [Compound 3, H-Asp-Tyr-N-MeNle-Gly-Trp-N-MeNle-Asp-Phe-NH2 Bis-SO3^θ] (X1-[sY][NMeNle]GW[NMeNle]DF-NH2; N-terminus assumed), in assay [3], the IC50 stood at 1.41 nM and the “Ratio Pancreas/Brain Rat” value is given as 0.29. The compound further registered an IC50 in assay [1] of 0.46 nM.

`CCCC[C@H](NC(=O)[C@H](Cc1c[nH]c2ccccc12)NC(=O)CNC(=O)[C@H](CCCC)N(C)C(=O)[C@H](Cc1ccc(O)cc1)NC(=O)[C@@H](N)CC(=O)O)C(=O)N[C@@H](CC(=O)O)C(=O)N[C@@H](Cc1ccccc1)C(N)=O` [Compound 4, H-Asp-Tyr-N-MeNle-Gly-Trp-Nle-Asp-Phe-NH2]: in assay [3], the IC50 is 1.45 nM and the “Ratio Pancreas/Brain Rat” value was 32.2. Further, the IC50 in assay [1] came out at 46.7 nM.

As for `CCCC[C@H](NC(=O)[C@H](Cc1ccc(O)cc1)NC(=O)[C@@H](N)CC(=O)O)C(=O)NCC(=O)N[C@@H](Cc1c[nH]c2ccccc12)C(=O)N(C)[C@@H](CCCC)C(=O)N[C@@H](CC(=O)O)C(=O)N[C@@H](Cc1ccccc1)C(N)=O` [Compound 5, H-Asp-Tyr-Nle-Gly-Trp-N-MeNle-AsP-Phe-NH2], the IC50 in assay [3] was determined as 976 nM; in assay [1], 170 nM. In addition, in assay [3], the “Ratio Pancreas/Brain Rat” value was determined as 0.17.

In the case of `CCCC[C@H](NC(=O)[C@H](Cc1c[nH]c2ccccc12)NC(=O)CNC(=O)[C@@H](NC(=O)[C@H](Cc1ccc(O)cc1)NC(=O)[C@@H](N)CC(=O)O)C(C)C)C(=O)N[C@@H](CC(=O)O)C(=O)N[C@@H](Cc1ccccc1)C(N)=O` [Compound 6, H-Asp-Tyr-Val-Gly-Trp-Nle-Asp-Phe-NH2], in assay [3], the IC50 stood at 0.318 nM and the “Ratio Pancreas/Brain Rat” value turned out to be 33.5. Besides, the IC50 in assay [1] stood at 10.6 nM.

For the compound `CCCC[C@H](NC(=O)[C@H](Cc1c[nH]c2ccccc12)NC(=O)CNC(=O)[C@H](NC(=O)[C@H](Cc1ccc(O)cc1)NC(=O)[C@@H](N)CC(=O)O)C(C)C)C(=O)N[C@@H](CC(=O)O)C(=O)N[C@@H](Cc1ccccc1)C(N)=O` [Compound 7, H-Asp-Tyr-D-Val-Gly-Trp-Nle-Asp-Phe-NH2], in assay [3], the IC50 stood at 1.26 nM and the “Ratio Pancreas/Brain Rat” value came out at 413. In assay [1], this compound displayed an IC50 of 521 nM.

`CCCC[C@H](NC(=O)[C@H](Cc1ccc(O)c(O)c1)NC(=O)[C@@H](N)CC(=O)O)C(=O)NCC(=O)N[C@@H](Cc1c[nH]c2ccccc12)C(=O)N[C@@H](CCCC)C(=O)N[C@@H](CC(=O)O)C(=O)N[C@@H](Cc1ccccc1)C(N)=O` [Compound 8, H-Asp-Dopa-Nle-Gly-Trp-Nle-Asp-Phe-NH2]: the IC50 amounted to 9.7 nM in assay [3] and 0.975 nM in assay [1]. Moreover, the “Ratio Pancreas/Brain Rat” value in assay [3] is given as 0.0010.

As to `CCCC[C@H](NC(=O)[C@H](Cc1c[nH]c2ccccc12)NC(=O)CNC(=O)[C@H](CCCC)N(C)C(=O)[C@H](Cc1ccc(OS(=O)(=O)O)cc1)NC(=O)[C@H](CC(=O)O)NS(=O)(=O)O)C(=O)N[C@@H](CC(=O)O)C(=O)N[C@@H](Cc1ccccc1)C(N)=O` [Compound 9, H-Asp-Tyr-N-MeNle-Gly-Trp-Nle-Asp-Phe-NH2 Bis-SO3 θ] (X1-[sY][NMeNle]GW[Nle]DF-NH2; N-terminus assumed), the “Ratio Pancreas/Brain (Guinea Pig)” value in assay [4] is 9099. In addition, the IC50 in assay [4] came out at 3.19 nM; in assay [2], 29100 nM.

Consider `CCCC[C@H](NC(=O)[C@H](Cc1ccc(OS(=O)(=O)O)cc1)NC(=O)[C@H](CC(=O)O)NS(=O)(=O)O)C(=O)NCC(=O)N[C@@H](Cc1c[nH]c2ccccc12)C(=O)N(C)[C@@H](CCCC)C(=O)N[C@@H](CC(=O)O)C(=O)N[C@@H](Cc1ccccc1)C(N)=O` [Compound 10, H-Asp-Tyr-Nle-Gly-Trp-N-MeNle-Asp-Phe-NH2 -Bis-SO3θ] (X1-[sY][Nle]GW[NMeNle]DF-NH2; N-terminus assumed), for which, in assay [3], the IC50 stood at 0.496 nM and the “Ratio Pancreas/Brain Rat” value is recorded as 2.81. In assay [1], the IC50 amounted to 1.39 nM.

For `CCCC[C@H](NC(=O)[C@H](Cc1c[nH]c2ccccc12)NC(=O)CNC(=O)[C@@H](NC(=O)[C@H](Cc1ccc(OS(=O)(=O)O)cc1)NC(=O)[C@H](CC(=O)O)NS(=O)(=O)O)C(C)C)C(=O)N[C@@H](CC(=O)O)C(=O)N[C@@H](Cc1ccccc1)C(N)=O` [Compound 11, H-Asp-Tyr-Val-Gly-Trp-Nle-Asp-Phe-NH2 Bis-SO3 θ] (X1-[sY]VGW[Nle]DF-NH2; N-terminus and C-terminus assumed), in assay [3], the “Ratio Pancreas/Brain Rat” value is given as 33.46.

Take `CCCC[C@H](NC(=O)[C@H](Cc1c[nH]c2ccccc12)NC(=O)CNC(=O)[C@H](NC(=O)[C@H](Cc1ccc(OS(=O)(=O)O)cc1)NC(=O)[C@H](CC(=O)O)NS(=O)(=O)O)C(C)C)C(=O)N[C@@H](CC(=O)O)C(=O)N[C@@H](Cc1ccccc1)C(N)=O` [Compound 12, H-Asp-Tyr-D-Val-Gly-Trp-Nle-Asp-Phe-NH2 Bis-SO3 θ] (X1-[sY][dV]GW[Nle]DF-NH2; N-terminus and C-terminus assumed): the “Ratio Pancreas/Brain Rat” value in assay [3] came to 39.5.
